# Measurements published in patent US10329295B2, “Pyrrolotriazine inhibitors of IRAK4 activity” (MERCK SHARP & DOHME CORP., priority 2015, dated 2019).
# pIC50: −log10 of the molar value. Counter-ions that a name gives are not always drawn.
# Biological target: GST tagged IRAK4 (Homo sapiens (Human), UniProt Q9NWZ3)
# Experiment: IRAK4 Kinase Assay (IMAP fluorescence polarization)
# Type: biochemical
# Settings: 0.5 nM GST tagged IRAK4, 100 μM ATP, 30 minutes at 25° C.
# Experimental: The kinase activity of IRAK4 is determined by its ability to catalyze the phosphorylation of a fluorescent polypeptide substrate. The extent of phosphorylation is measured using the IMAP technology (Molecular Devices) where the phosphorylated fluorescent substrate binds to the large M(III)-based nanoparticles which reduces the rotational speed of the substrate and thus increases its fluorescent polarization (FP).
# 20 μL reaction mixture contains 10 mM TriHCl, pH 7.2, 0.5 nM GST tagged IRAK4 (SignalChem), 100 nM fluorescent peptide substrate (RP7030, Molecular Devices), 100 μM ATP, 1 mM DDT, 1 mM MgCl2, and 0.01% Tween 20. The reaction is initiated by the addition of ATP. After incubation for 30 minutes at 25° C., 60 μL of Progressive IMAP Reagent (Molecular Devices) is added to stop the reaction. Change in RP7030's FP is determined by a FP reader (Analyst HT, LJL BioSystems).
# Sequence of GST tagged IRAK4 (Q9NWZ3 whole entry): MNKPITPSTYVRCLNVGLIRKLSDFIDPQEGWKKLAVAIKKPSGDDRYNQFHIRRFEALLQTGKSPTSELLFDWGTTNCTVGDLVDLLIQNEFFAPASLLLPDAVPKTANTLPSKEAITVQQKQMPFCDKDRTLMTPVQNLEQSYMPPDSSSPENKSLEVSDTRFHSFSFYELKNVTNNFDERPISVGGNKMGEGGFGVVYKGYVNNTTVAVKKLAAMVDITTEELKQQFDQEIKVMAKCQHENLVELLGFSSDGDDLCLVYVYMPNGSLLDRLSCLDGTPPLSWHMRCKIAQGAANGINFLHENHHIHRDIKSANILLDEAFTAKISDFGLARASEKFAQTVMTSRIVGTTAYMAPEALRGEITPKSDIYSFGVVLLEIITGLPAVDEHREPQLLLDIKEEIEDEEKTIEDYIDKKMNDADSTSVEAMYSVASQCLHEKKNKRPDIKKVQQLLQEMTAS
row,SMILES,pIC50
1,"Cn1cc(NC(=O)c2ccc3cnc(N4C[C@@H]5CN[C@@H](C5)C4)nn23)c(C(F)(F)F)n1 (single isomer, unassigned) [Example 100, 2-[(1S,5S)- or (1R,5R)-3,6-diazabicyclo[3.2.1]oct-3-yl]-N-[1-methyl-3-(trifluoromethyl)-1H-pyrazol-4-yl]pyrrolo[2,1-f][1,2,4]triazine-7-carboxamide]",7.19
2,"N#Cc1cscc1NC(=O)c1ccc2cnc(N[C@@H]3CCCC[C@@H]3O)nn12 [Example 142, N-(4-cyanothiophen-3-yl)-2-{[(1R,2S)-2-hydroxycyclohexyl]amino}-pyrrolo[2,1-f][1,2,4]triazine-7-carboxamide trifluoroacetate]",5.80
3,"N#Cc1ccccc1NC(=O)c1ccc2cnc(N3CCCNCC3)nn12 [Example 59, N-(2-cyanophenyl)-2-(1,4-diazepan-1-yl)pyrrolo[2,1-f][1,2,4]triazine-7-carboxamide trifluoroacetate]",5.37
4,"O=C(Nc1ccsc1Br)c1ccc2cnc(N3C[C@H]4CC[C@@H]3CN4)nn12 (single isomer, unassigned) [Example 49, N-(2-bromothiophen-3-yl)-2-[(1S,4S)- or (1R,4R)-2,5-diazabicyclo[2.2.2]oct-2-yl]pyrrolo[2,1-f][1,2,4]triazine-7-carboxamide trifluoroacetate]",5.71
5,"Cn1cc(NC(=O)c2ccc3cnc(NC4CCCCNC4)nn23)c(C(F)F)n1 (stereo not drawn) [Example 19, 2-(azepan-3-ylamino)-N-[3-(difluoromethyl)-1-methyl-1H-pyrazol-4-yl]pyrrolo[2,1-f][1,2,4]triazine-7-carboxamide trifluoroacetate]",9.00
6,"Cn1cc(NC(=O)c2ccc3cnc(N4CCCNCC4)nn23)c(Cl)n1 [Example 26, N-(3-chloro-1-methyl-1H-pyrazol-4-yl)-2-(1,4-diazepan-1-yl)pyrrolo[2,1-f][1,2,4]triazine-7-carboxamide trifluoroacetate]",7.21
7,"N#Cc1ccccc1NC(=O)c1ccc2cnc(N[C@@H]3CCCNC3)nn12 [Example 52, N-(2-cyanophenyl)-2-[(3R)-piperidin-3-ylamino]pyrrolo[2,1-f][1,2,4]triazine-7-carboxamide trifluoroacetate]",7.59
8,"Cn1cc(NC(=O)c2ccc3cnc(N4C[C@H]5CC[C@@H]4CN5)nn23)c(Cl)n1 (single isomer, unassigned) [Example 45, N-(3-chloro-1-methyl-1H-pyrazol-4-yl)-2-[(1S,4S)- or (1R,4R)-2,5-diazabicyclo[2.2.2]oct-2-yl]pyrrolo[2,1-f][1,2,4]triazine-7-carboxamide trifluoroacetate]",7.10
9,"N#Cc1ccccc1NC(=O)c1ccc2cnc(N[C@@H]3CCCCNC3)nn12 (single isomer, unassigned) [Example 73, 2-[(3S)- or (3R)-azepan-3-ylamino]-N-(2-cyanophenyl)pyrrolo[2,1-f][1,2,4]triazine-7-carboxamide trifluoroacetate]",7.57
10,"COCCn1cc(NC(=O)c2ccc3cnc(N[C@@H]4CCCC[C@@H]4N)nn23)cn1 [Example 168, 2-{[(1R,2S)-2-aminocyclohexyl]amino}-N-[1-(2-methoxyethyl)-1H-pyrazol-4-yl]pyrrolo[2,1-f][1,2,4]triazine-7-carboxamide trifluoroacetate]",6.52
11,"N[C@@H]1[C@H](Nc2ncc3ccc(C(=O)Nc4cscc4C(F)F)n3n2)CCCC1(F)F [Example 93, 2-{[(1R,2R)-2-amino-3,3-difluorocyclohexyl]amino}-N-[4-(difluoromethyl)thiophen-3-yl]pyrrolo[2,1-f][1,2,4]triazine-7-carboxamide trifluoroacetate]",6.53
12,"Cn1cc(NC(=O)c2ccc3cnc(N4CC5CCC(C4)N5)nn23)c(C(F)(F)F)n1 [Example 82, 2-(3,8-diazabicyclo[3.2.1]oct-3-yl)-N-[1-methyl-3-(trifluoromethyl)-1H-pyrazol-4-yl]pyrrolo[2,1-f][1,2,4]triazine-7-carboxamide trifluoroacetate]",7.49
13,"Cn1cc(NC(=O)c2ccc3cnc(N4CCNCC4)nn23)c(C(F)F)n1 [Example 11, N-[3-(difluoromethyl)-1-methyl-1H-pyrazol-4-yl]-2-piperazin-1-ylpyrrolo[2,1-f][1,2,4]triazine-7-carboxamide trifluoroacetate]",8.52
14,"Cn1cc(NC(=O)c2ccc3cnc(N4C[C@H]5CC[C@@H]4CN5)nn23)c(C#N)n1 (single isomer, unassigned) [Example 47, N-(3-cyano-1-methyl-1H-pyrazol-4-yl)-2-[(1S,4S)- or (1R,4R)-2,5-diazabicyclo[2.2.2]oct-2-yl]pyrrolo[2,1-f][1,2,4]triazine-7-carboxamide trifluoroacetate]",6.58
15,"O=C(Nc1cscc1Br)c1ccc2cnc(N3CCCNCC3)nn12 [Example 23, N-(4-bromothiophen-3-yl)-2-(1,4-diazepan-1-yl)pyrrolo[2,1-f][1,2,4]triazine-7-carboxamide trifluoroacetate]",5.77
16,"N[C@@H]1[C@H](Nc2ncc3ccc(C(=O)Nc4ccsc4Cl)n3n2)CCCC1(F)F [Example 97, 2-{[(1R,2R)-2-amino-3,3-difluorocyclohexyl]amino}-N-(2-chlorothiophen-3-yl)pyrrolo[2,1-f][1,2,4]triazine-7-carboxamide trifluoroacetate]",5.72
17,"Cn1cc(NC(=O)c2ccc3cnc(N4C[C@H]5CNC[C@@H]4C5)nn23)c(C(F)F)n1 (single isomer, unassigned) [Example 120, 2-[(1S,5R)- or (1R,5S)-3,6-diazabicyclo[3.2.1]oct-6-yl]-N-[3-(difluoromethyl)-1-methyl-1H-pyrazol-4-yl]pyrrolo[2,1-f][1,2,4]triazine-7-carboxamide]",7.82
18,"Cn1cc(NC(=O)c2ccc3cnc(N4C[C@@H]5CNC[C@H]4C5)nn23)c(C(F)(F)F)n1 (single isomer, unassigned) [Example 116, 2-[(1S,5R)- or (1R,5S)-3,6-diazabicyclo[3.2.1]oct-6-yl]-N-[1-methyl-3-(trifluoromethyl)-1H-pyrazol-4-yl]pyrrolo[2,1-f][1,2,4]triazine-7-carboxamide]",7.35
19,"Cn1cc(NC(=O)c2ccc3cnc(N4C[C@@H]5CC[C@H]4CN5)nn23)c(Cl)n1 (single isomer, unassigned) [Example 44, N-(3-chloro-1-methyl-1H-pyrazol-4-yl)-2-[(1S,4S)- or (1R,4R)-2,5-diazabicyclo[2.2.2]oct-2-yl]pyrrolo[2,1-f][1,2,4]triazine-7-carboxamide trifluoroacetate]",6.90
20,"Cn1cc(NC(=O)c2ccc3cnc(N4C[C@@H](N)C[C@H](F)C4)nn23)c(C(F)F)n1 [Example 157, 2-[(3S,5S)-3-amino-5-fluoropiperidin-1-yl]-N-[3-(difluoromethyl)-1-methyl-1H-pyrazol-4-yl]pyrrolo[2,1-f][1,2,4]triazine-7-carboxamide trifluoroacetate]",9.10
21,"Cn1cc(NC(=O)c2ccc3cnc(N[C@H]4CCC(F)(F)C[C@H]4N)nn23)c(C(F)(F)F)n1 (single isomer, unassigned) [Example 128, 2-{[(1S,2R)- or (1R,2S)-2-amino-4,4-difluorocyclohexyl]amino}-N-[1-methyl-3-(trifluoromethyl)-1H-pyrazol-4-yl]pyrrolo[2,1-f][1,2,4]triazine-7-carboxamide trifluoroacetate]",7.34
22,"Cn1cc(NC(=O)c2ccc3cnc(N4C[C@H]5CN[C@H](C5)C4)nn23)c(C#N)n1 (single isomer, unassigned) [Example 114, N-(3-cyano-1-methyl-1H-pyrazol-4-yl)-2-[(1S,5S)- or (1R,5R)-3,6-diazabicyclo[3.2.1]oct-3-yl]pyrrolo[2,1-f][1,2,4]triazine-7-carboxamide]",6.41
23,"Cn1cc(NC(=O)c2ccc3cnc(NC4CCCCNC4)nn23)c(C(F)(F)F)n1 (stereo not drawn) [Example 10, 2-(azepan-3-ylamino)-N-[1-methyl-3-(trifluoromethyl)-1H-pyrazol-4-yl]pyrrolo[2,1-f][1,2,4]triazine-7-carboxamide trifluoroacetate]",8.40
24,"Cn1cc(NC(=O)c2ccc3cnc(N[C@@H]4CCCC(F)(F)[C@@H]4N)nn23)c(Br)n1 [Example 89, 2-{[(1R,2R)-2-amino-3,3-difluorocyclohexyl]amino}-N-(3-bromo-1-methyl-1H-pyrazol-4-yl)pyrrolo[2,1-f][1,2,4]triazine-7-carboxamide trifluoroacetate]",6.43
25,"O=C(Nc1ccsc1C(F)(F)F)c1ccc2cnc(N3C[C@H]4CC[C@@H]3CN4)nn12 (single isomer, unassigned) [Example 87, 2-[(1S,4S)- or (1R,4R)-2,5-diazabicyclo[2.2.2]oct-2-yl]-N-[2-(trifluoromethyl)thiophen-3-yl]pyrrolo[2,1-f][1,2,4]triazine-7-carboxamide trifluoroacetate]",5.84
26,"O=C(Nc1ccccc1Cl)c1ccc2cnc(N3CCCNCC3)nn12 [Example 39, N-(2-chlorophenyl)-2-(1,4-diazepan-1-yl)pyrrolo[2,1-f][1,2,4]triazine-7-carboxamide trifluoroacetate]",6.64
27,"Cn1cc(NC(=O)c2ccc3cnc(N4CC5CCC(C4)N5)nn23)c(C(F)F)n1 [Example 83, 2-(3,8-diazabicyclo[3.2.1]oct-3-yl)-N-[3-[difluoromethyl)-1-methyl-1H-pyrazol-4-yl]pyrrolo[2,1-f][1,2,4]triazine-7-carboxamide trifluoroacetate]",8.70
